Experimental findings from US20250085273A1, “NOVEL RAPID DRUG DISCOVERY FOR SEPSIS AND AGENTS FOR USE AS SEPSIS THERAPY” (priority 2023, published 2025) are described below.

What all share (format): in vivo, Danio rerio
In assay [1] the test system is 3-dpf Zebrafish Embryos Challenged with LPS (P. aeruginosa 60 μg/mL). To be noted: P. aeruginosa LPS 60 μg/mL, compound 10 μM; for 3 dpf Embryos Percent Rescue (Mort + Tail Edema): initial 3-dpf screen shown for reference; for Percent Rescue (Mort + Tail Edema): 3-dpf embryos, n=16; for Percent Rescue (Mort + Tail Edema) / rescue of tail edema and mortality (sepsis rescue rate) at 3-dpf: 24 hours. The procedure, abridged: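 3-dpf PTU-treated AB zebrafish embryos exposed to 60 μg/mL P. aeruginosa LPS plus 10 μM compound (final) at 28.5 °C, n=16 per compound. Tail edema and mortality scored at 6 and 24 h post exposure; rescue judged against LPS-only controls at 24 h.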

In assay [2] the test system is 5-dpf zebrafish larvae challenged with P. aeruginosa LPS 60 μg/mL. The following applies: compound 10 μM; for 5 dpf Embryos Percent Rescue (Mort + Tail Edema): 5-dpf larvae. The source says: Confirmatory testing followed the same methods as the initial testing but used 5-dpf larvae instead of the 3-dpf larvae that were used for the initial screening because they were easier to handle and replicated the methods of Philip et al. (2017).
Next, follow-on 5-dpf screening was implemented to confirm initial screening with more larvae. Zebrafish swim faster at 5-dpf (requiring more time to load 96 plates), and all major organ systems are functioning at 5-dpf and thus determined as advantageous for follow-on confirmation.

For assay [3], the system named is larval zebrafish exposed to Pseudomonas aeruginosa 60 μg/mL lipopolysaccharide (LPS). Nature of the assay: Zebrafish endotoxicity/sepsis model drug screening, statements without larval stage. To be noted: for rescue from mortality / rescue from vascular damage (tail edema): zebrafish endotoxemia model. The source says: To identify potential sepsis drug candidates, an optimized larval zebrafish model of endotoxicity/sepsis was used to screen commercial libraries of U.S. Food and Drug Administration (FDA)-approved drugs and other active pharmaceutical ingredients (API) known to affect pathways implicated in the initiation and progression of sepsis in humans (i.e., inflammation, mitochondrial dysfunction, coagulation, and apoptosis). In this model, endotoxicity was induced in 3- and 5-day post fertilization larval zebrafish (characterized by mortality and tail fin edema (vascular leakage)) by immersion exposure to Pseudomonas aeruginosa 60 μg/mL lipopolysaccharide (LPS) for 24 hours, then screened for the rescue potential of 644 selected drugs simultaneously with LPS at 10 μM. After LPS exposure, a neurobehavioral assay (light-dark test) was performed to further evaluate rescue from endotoxicity and to determine possible off-target drug side effects.

Assay [4] deals with zebrafish (4 dpf pre-treated, LPS exposure at 5-dpf) challenged with P. aeruginosa LPS 60 μg/mL. The following applies: number of n = 16 fish; for 24 hour Tail Edema, No-Drug Pretreatment: 10 μM drug with LPS 60 μg/mL; for 24 hour Tail Edema, No-Drug Pretreatment / 24 Hour Mortality and Tail Edema, No-Drug Pretreatment / 24 Hour Mortality, No Drug Pretreatment: no 24-hour pre-treatment; for 24 Hour Mortality and Tail Edema, Drug Pretreatment / 24 Hour Mortality, Drug Pretreatment: 24-hour 10 μM drug pre-treatment; for 24 hour Tail Edema, Drug Pretreatment: 24-hour 10 μM drug pre-treatment before LPS 60 μg/mL. The method, boiled down: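 PTU-treated 4 dpf zebrafish embryos received a 24-hour drug pre-treatment at 28.5 °C, alongside an untreated parallel group, before challenge at 5 dpf with P. aeruginosa LPS at 60 μg/mL. Tail edema and mortality were scored at 6 and 24 h post exposure, followed by a neurobehavioral test.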

Assay [5] concerns zebrafish exposed to P. aeruginosa LPS. The experiment in a line: Model compound testing in the optimized zebrafish sepsis model (varying LPS dose ranges). The following applies: for complete rescue of exposed fish: 60 μg/mL LPS challenge concentration; for mortality at 24 hours post exposure: 24 hours post LPS exposure. The procedure:
Three sources of LPS were evaluated: E. coli 0111:B4, P. aeruginosa Sigma L9143, and K. pneumoniae. E. coli 0111:B4 LPS was selected as the reference LPS used by Philip et al. (2017). P. aeruginosa LPS is commonly associated with infections in hospitals, accounting for an estimated 32,600 cases and resulting in an estimated 2,700 deaths in 2017 (CDC Report 2019). P. aeruginosa infections are also a common cause of sepsis in both patients with severe burns and immunocompromised patients. K. pneumoniae LPS has military relevance related to battlefield injury infections (Kiley et al., 2021). Initial range finding LC50 tests with larval zebrafish were conducted for each LPS strain at both 3-dpf and 5-dpf. […] (E. coli 0111:B4 was also tested at higher concentrations, 400, 800, and 1000 μg/mL due a lack of toxicity within the initial dose range.) Well plates were then covered with parafilm and placed into an incubator at 28.5° C. for 24 hours. After 6 and 24 hours, the plates were removed and scored for mortality, tail edema, and ROS production. The tail edema endpoint evaluates vascular leakage from caudal fin in response to LPS exposure (FIG. 2). ROS production was determined as described by Philip et al. (2017) by adding 2,7-dichloroflurescein diacetate (100 μM) to the wells containing the zebrafish larvae and incubating them in a 100% dark photoperiod incubator at 28.5° C. for one hour. Florescent images of the incubated zebrafish were then captured with a Keyence BZ-X710 fluorescent microscope using 10× objective with a GFP filter and fixed 1/15 second exposure for all imaging. […] Results from the LPS toxicity testing and endpoint screening were used to develop the optimized testing procedure through evaluation in selected model compounds, as described in the next section and in the results.
The optimized zebrafish sepsis model was evaluated against compounds previously shown to have efficacy in previous zebrafish sepsis models: fasudil, hydrocortisone, dexamethasone, and fisetin. Fasudil, an anti-vascular leakage compound (inhibitor of the RhoA/Rho-kinase pathway) was shown by Philip et al. (2017) to rescue zebrafish from LPS-induced mortality, ROS production, and tail fin edema. Fasudil also rescued LPS-induced vascular leakage in murine models of experimental sepsis (Li et al., 2010) and reduced acute lung injury in septic rats through inhibition of the Rho/ROCK signaling pathway (Wang et al., 2018). […] Endpoints evaluated with model compounds included mortality, tail edema, and ROS at 6- and 24-hours post exposure to varying dose ranges of LPS.
LC50s for the LPS tests were determined using the Trimmed Spearmen-Karber method (Hamilton et al., 1977). The tail edema and mortality data from the initial and confirmatory drug testing was analyzed using GraphPad Prism 9 using Fisher's Exact Test. Each drug treatment group was compared pairwise with the on-board positive control group on each test plate. Statistical significance was determined with values of p≤0.05. Neurological behavioral testing data was analyzed by Ethovision software that produced an activity analysis profile per frame for each well of the 96 well plates. Any dead embryos were removed from the data set, and the remaining data set was imported into Excel. […] The behavioral data was then statistically analyzed by drug per phase using a 2 tailed t-test to determine statistical significance p≤0.01.

Where a name gives a salt, the structure may show the parent alone. Read-outs that look alike come from different tables or passages of the source.

Regarding `O=C(O)c1cn(C2CC2)c2cc(N3CCNCC3)c(F)cc2c1=O` [Compound 34, Ciprofloxacin (hydrochloride monohydrate)], in assay [1], the “3 dpf Embryos Percent Rescue (Mort + Tail Edema)” value (shortened to “3 dpf Embryos Percent Rescue”) is listed as 13%. Also, the “5 dpf Embryos Percent Rescue (Mort + Tail Edema)” value (“5 dpf Embryos Percent Rescue” below) in assay [2] is reported as 6%. Also, in assay [3], the rescue from mortality result is on record as “provided rescue from mortality” and the “rescue from vascular damage (tail edema)” value is “did not elicit rescue from vascular damage”.

For the compound `CCCCCCCCCCCCCCCC(=O)OC1CCCn2c1nc(C)c(CCN1CCC(c3noc4cc(F)ccc34)CC1)c2=O` (stereo not shown) [Compound 429, Paliperidone palmitate], in assay [1], the “Percent Rescue (Mort + Tail Edema)” value came to 94%; the “rescue of tail edema and mortality (sepsis rescue rate) at 3-dpf” value (from here on “rescue … at 3-dpf”) came to 94%; the “3 dpf Embryos Percent Rescue” value was 94%. In addition, in assay [2], the “5 dpf Embryos Percent Rescue” value is recorded as 100%; the “rescue of tail edema and mortality (sepsis rescue rate) at 5-dpf” value (“rescue … at 5-dpf” below) stood at 100%. Besides, in assay [4], the “24 hour Tail Edema, No-Drug Pretreatment” value is given as 3 fish; the “24 Hour Mortality and Tail Edema, Drug Pretreatment” value worked out at 12 fish; the “24 Hour Mortality, Drug Pretreatment” value turned out to be 10 fish; the “24 hour Tail Edema, Drug Pretreatment” value is recorded as 2 fish. In assay [4], the “24 Hour Mortality and Tail Edema, No-Drug Pretreatment” value came to 9 fish; the “24 Hour Mortality, No Drug Pretreatment” value stood at 6 fish.

Take `Clc1ccc(CCCOCCCN2CCCCC2)cc1` [Compound 435, Pitolisant]: in assay [1], the “Percent Rescue (Mort + Tail Edema)” value came out at 94%; the “rescue … at 3-dpf” value was 94%; the “3 dpf Embryos Percent Rescue” value worked out at 94%. In addition, in assay [2], the “5 dpf Embryos Percent Rescue” value worked out at 88%; the “rescue … at 5-dpf” value amounted to 88%. In assay [4], the “24 hour Tail Edema, No-Drug Pretreatment” value is listed as 2 fish; the “24 Hour Mortality and Tail Edema, Drug Pretreatment” value is 16 fish; the “24 Hour Mortality, Drug Pretreatment” value is 16 fish; the “24 hour Tail Edema, Drug Pretreatment” value turned out to be 0 fish. In addition, in assay [4], the “24 Hour Mortality and Tail Edema, No-Drug Pretreatment” value was determined as 15 fish; the “24 Hour Mortality, No Drug Pretreatment” value was 13 fish.

In the case of `O=C(c1ccc(F)cc1)C1CCN(CCn2c(=O)[nH]c3ccccc3c2=O)CC1` [Compound 437, Ketanserin (tartrate)], in assay [1], the “Percent Rescue (Mort + Tail Edema)” value was found to be 100%; the “rescue … at 3-dpf” value is reported as 100%; the “3 dpf Embryos Percent Rescue” value is reported as 100%. Moreover, in assay [2], the “5 dpf Embryos Percent Rescue” value was determined as 100%; the “rescue … at 5-dpf” value is reported as 100%. In addition, the “rescue … at 5-dpf” value in assay [2] (listed as ketanserin tartrate) came out at 100%. For the same compound, in assay [4], the “24 hour Tail Edema, No-Drug Pretreatment” value is 0 fish; the “24 Hour Mortality and Tail Edema, Drug Pretreatment” value turned out to be 0 fish; the “24 Hour Mortality, Drug Pretreatment” value is on record as 0 fish; the “24 hour Tail Edema, Drug Pretreatment” value was determined as 0 fish. In assay [4], the “24 Hour Mortality and Tail Edema, No-Drug Pretreatment” value is 0 fish; the “24 Hour Mortality, No Drug Pretreatment” value turned out to be 0 fish.

`O=S(=O)(c1cccc2cnccc12)N1CCCNCC1` [Fasudil]: in assay [5], the “complete rescue of exposed fish” value was “Neither compound showed complete rescue” and the “mortality at 24 hours post exposure” value is on record as “statistically significant (p=0.0233) reduction in mortality”.

For the compound `O=c1c(O)c(-c2ccc(O)c(O)c2)oc2cc(O)ccc12` [Fisetin], in assay [5], the “complete rescue of exposed fish” value was “Neither compound showed complete rescue”.

`CN1C2CCCC1CC(NC(=O)c1nn(C)c3ccccc13)C2` (stereo not shown) [Granisetron]: in assay [3], the rescue from mortality entry was “significant reduction in mortality” and the “rescue from vascular damage (tail edema)” value is reported as “did not rescue from vascular damage (tail edema)”.

On to `Cc1nccn1CC1CCc2c(c3ccccc3n2C)C1=O` (stereo not shown) [Ondansetron], for which the “efficacy in the zebrafish endotoxicity sepsis model” value in assay [3] (in vivo) is listed as “not efficacious”.

`C[C@]12CCC(=O)C=C1CC[C@@H]1[C@@H]2[C@@H](O)C[C@@]2(C)[C@H]1CC[C@]2(O)C(=O)CO` [hydrocortisone]: the “rescue at 6-hour exposure time point” value in assay [3] (6-hour exposure time point) was “showed rescue early”. Besides, in assay [3] (24 hours post exposure), the “rescue by 24 hours post exposure” value was “failed to show any level of rescue”. Further, the “efficacy (mortality) at 6 hours” value in assay [5] (6 hours post LPS exposure) is “some efficacy noted”. In addition, the “mortality at 24 hours post exposure” value in assay [5] is recorded as “increased mortality over no treatment”.

With Ferric citrate [Compound 340], in assay [1], the “Percent Rescue (Mort + Tail Edema)” value is 94%; the “rescue … at 3-dpf” value came out at 94%; the “3 dpf Embryos Percent Rescue” value was 94%. Also, in assay [2], the “5 dpf Embryos Percent Rescue” value was found to be 81%; the “rescue … at 5-dpf” value is given as 81%. For the same compound, in assay [3] (6 hours post exposure), the “fish with tail edemas” value is reported as 9 of 16 fish. Further, in assay [3] (24 hours), the “fish with tail edema” value is 1 of 16. In addition, in assay [4], the “24 hour Tail Edema, No-Drug Pretreatment” value was found to be 2 fish; the “24 Hour Mortality and Tail Edema, Drug Pretreatment” value is on record as 15 fish; the “24 Hour Mortality, Drug Pretreatment” value came out at 15 fish; the “24 hour Tail Edema, Drug Pretreatment” value amounted to 0 fish. For the same compound, in assay [4], the “24 Hour Mortality and Tail Edema, No-Drug Pretreatment” value stood at 15 fish; the “24 Hour Mortality, No Drug Pretreatment” value turned out to be 13 fish.
